Measurements as given in US20050132448A1, “Assay for beta cell toxic macrolides” (priority 2001, published 2005).

Experiments:
Format in all cases: in vivo
vATPase = molecular target: T1, vATPase (Mus musculus, UniProt P63082); test: V-ATPase activity assay on kidney homogenates of bafilomycin A1 treated mice; conditions: for Bafilomycin A1 sensitive ATPase activity ± SD / total ATPase activity ± SD: kidney homogenate; for reduction of bafilomycin A1 sensitive ATPase activity: vs control
T1 construct: from tissue; host or cells: kidney of male Balb/c mice (crude homogenate, 700 x g supernatant)
Protocol: Male Balb/c mice were provided by the Monash University Central Animal House and Breeding Facility. The Monash University Department of Biochemistry Animal Ethics Committee approved all animal experimentation. Bafilomycin A1 (Sigma) was dissolved in 70% ethanol then diluted 1 in 10 with sterile phosphate buffered saline (PBS) to give a working stock of 4.8 μg/ml. Groups of between 3 and 9 mice as indicated were administered 12 μg per kilogram (body weight) bafilomycin A1 by intraperitoneal injection, which should achieve a final concentration in the blood of 275 nM bafilomycin A1 assuming a blood volume of 70 ml per kg for mice. […] Control mice received the ethanol/PBS carrier solution that lacked the inhibitor.
Seven control mice, 4 mice treated 1 day previously and 4 mice treated 7 days previously with bafilomycin A1 were anaesthetised with 35 mg per kg body weight pentobarbitone (Nembutal) and the kidneys removed and immediately frozen on dry ice and stored at −80° C. until processed. The kidneys were weighed then homogenised in liquid nitrogen using a mortar and pestle. 1 ml of 10 mM Tris-Cl pH 8.0 and 2 mM Mg2Cl containing protease inhibitors was then added and the tissue was further homogenised with 5 strokes of a dounce homogeniser. One ml of 0.5 M sucrose, 40 mM Tris-Cl pH 8, 2 mM Mg2Cl was then added to the homogenate and the suspension was clarified by centrifugation at 700×g for 10 minutes at 4° C. Supernatents containing soluble and membrane bound components were then assayed in duplicate for ATPase activity by incubating 100 μl of a 1:100 dilution of the tissue extract with 1 mM ATP in Tris buffered saline (TBS) for 30 minutes in the well of a microtitre plate in the presence or absence of 15 μl of a 1 μM solution of bafilomycin A1 in a final reaction volume of 200 μl. The inorganic phosphate released was measured using the one-step method of Chan et al., (1986), and absorbances were read in a microtitre plate reader at a wavelength of 660 nm. Results were corrected for background phosphate concentration and ATP autohydrolysis. The protein content of each kidney extract was determined using the Bradford reagent (Biorad).

C57B1/6J mice = test: Size and number of pancreatic islets after vATPase inhibitors
Protocol: The effect of vATPase inhibitors on the size and number of pancreatic islets was analysed in C57B1/6J using either bafilomycin A1 (BA1) or concanamycin A (CMA). The effect of Streptozotocin, an islet beta-cell specific toxin produced by Streptomyces achromogenes was also examined, to enable comparison with the effect of vATPase inhibitors.
Groups of 4 female C57B1/6J mice were injected with 5 doses on 5 consecutive days of 12 ng/g body weight BA1, CMA or the well characterised islet β-cell toxin streptozotocin. Pancreases were removed on day 84 and 3 formalin-fixed sections per mouse were immunostained for insulin. The area of insulin-positive islets was measured on digital images using MCID software.

Balb/c mice = test: Intra-islet insulin by indirect immunofluorescence on pancreas sections
Protocol: FIG. 2 is a graphical representation of vacuolar ATPase inhibition causing increased islet insulin content of secretory granules in islet β cells. Infra-islet insulin was detected in paraffin embedded sections by indirect immunofluorescence using an anti-pig insulin antibody. Digitised images collected on an epifluorescent microscope were analysed for staining density using MCID image analysis software to provide a semi-quantitative measure of the amount of bound anti-insulin antibody. At least 9 islets were measured for each of 5 control mice and 6 bafilomycin A1-treated mice, and individual values for each islet from all mice in each group were combined for analysis. A measurement was made in each islet, and the background measured in exocrine tissue adjacent to the same islet was subtracted. Units are arbitrary fluorescence units and the data are expressed as the mean and standard deviation.
The pancreas, liver, kidney and brain were dissected from anaesthetised mice and immediately fixed in formalin. […] Endogenous peroxidase activity was inactivated using 0.5% hydrogen peroxide in methanol prior to the antibody incubations and bound HRP conjugated antibody was detected using Sigma FAST-DAB peroxidase tablets. FITC was detected using an Olympus epifluorescence microsocope and images were captured and analysed using a digital camera and MCID software. […]

T1 sequence (Q91V37 whole entry): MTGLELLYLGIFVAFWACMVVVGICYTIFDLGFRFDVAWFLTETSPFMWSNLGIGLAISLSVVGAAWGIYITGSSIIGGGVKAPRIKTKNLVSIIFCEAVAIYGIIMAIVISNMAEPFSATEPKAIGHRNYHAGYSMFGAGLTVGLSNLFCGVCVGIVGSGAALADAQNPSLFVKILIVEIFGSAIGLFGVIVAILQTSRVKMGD
T1 sequence (P63082 whole entry): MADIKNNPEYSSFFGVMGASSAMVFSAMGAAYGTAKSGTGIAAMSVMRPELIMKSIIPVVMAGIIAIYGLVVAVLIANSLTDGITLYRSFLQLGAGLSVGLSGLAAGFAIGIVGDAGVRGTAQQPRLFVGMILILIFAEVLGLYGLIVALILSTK

## CO/C1=C\C(C)=C\[C@@H](C)[C@@H](O)[C@@H](C)C/C(C)=C/C=C/[C@H](OC)[C@@H]([C@@H](C)[C@@H](O)[C@H](C)[C@@]2(O)C[C@@H](O)[C@H](C)[C@@H](C(C)C)O2)OC1=O [bafilomycin A1]
vATPase; 1 day after treatment
  kidney % of animal weight ± SD: 0.90 ± 0.11%
vATPase; 1 day and 7 days after treatment
  weight or protein contents of the kidneys, treated vs control: no significant differences
vATPase; 7 day after treatment
  kidney % of animal weight ± SD: 0.90 ± 0.15%
vATPase; 1 day after 12 μg/kg i.p.
  Bafilomycin A1 sensitive ATPase activity ± SD: 0.80 ± 0.30 Nmol/min/mg protein
  total ATPase activity ± SD: 4.4 ± 0.5 Nmol/min/mg protein
vATPase; 7 day after 12 μg/kg i.p.
  Bafilomycin A1 sensitive ATPase activity ± SD: 0.80 ± 0.30 Nmol/min/mg protein
  total ATPase activity ± SD: 4.8 ± 0.8 Nmol/min/mg protein
vATPase; kidney, 1 day after treatment
  reduction of bafilomycin A1 sensitive ATPase activity: 50%
vATPase; kidney, 1 day and 7 days after treatment
  reduction of bafilomycin A1 insensitive ATPase activity: not in bafilomycin A1 insensitive ATPase activity
vATPase; kidney, 7 days after treatment
  reduction of bafilomycin A1 sensitive ATPase activity: 50%
C57B1/6J mice; day 84, 5 daily doses of 12 ng/g body weight
  No. islets per mm^2 pancreas section: 0.85 per mm^2 pancreas section
C57B1/6J mice; i.p. 12 ng/gram body weight
  effect on islet number and size: increased the number of small islets
C57B1/6J mice; insulin-positive islets, day 84, 5 daily doses of 12 ng/g body weight
  Median size: 3830 μm^2
Balb/c mice; 1 day after administration
  net fluorescence emitted by islets (median): 57.9 arbitrary fluorescence units
Balb/c mice; 7 days after administration
  net fluorescence emitted by islets (median): 59.9 arbitrary fluorescence units
